Test results from US8158621B2, “Methods of treating or preventing autoimmune diseases with 2,4-pyrimidinediamine compounds” (Rigel Pharmaceuticals, Inc., priority 2002, dated 2012).
Where two headings read alike, the source gives them in different places.

Test system: Human Jurkat T-cells (clone N)
Test: Jurkat T-cell activation (anti-TCR, CD69 upregulation)
Format: cell-based
Method in brief: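 Jurkat cells in RPMI + 5% FBS preincubated with compound 1 h at 37 °C, then stimulated with anti-TCR C305 at 500 ng/ml for 20 h. CD69 surface expression stained with anti-CD69-APC and read by flow cytometry; IC50 versus solvent-only control.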

| Compound | IC50 [µM] | other results |
| --- | --- | --- |
| O=[N+]([O-])c1ccc(NCCO)c(Nc2ncc(F)c(Nc3cc([N+](=O)[O-])ccc3NCCO)n2)c1 [Compound R950150] | > 10 |  |
| COc1ccc([N+](=O)[O-])cc1Nc1ncc(F)c(Nc2cc([N+](=O)[O-])ccc2OC)n1 [Compound R950151] |  | IC50 (Homo sapiens): 14.2 µM |
| O=[N+]([O-])c1cc(Nc2ccnc(Nc3ccc(F)c([N+](=O)[O-])c3)n2)ccc1F [Compound R950152] |  | IC50 (Homo sapiens): 2.65 µM |
| Cc1ccc(Nc2ccnc(Nc3ccc(C)c([N+](=O)[O-])c3)n2)cc1[N+](=O)[O-] [Compound R950153] |  | IC50 (Homo sapiens): > 10 µM |
| O=[N+]([O-])c1cc(Nc2ccnc(Nc3ccc(Cl)c([N+](=O)[O-])c3)n2)ccc1Cl [Compound R950154] |  | IC50 (Homo sapiens): > 10 µM |
| O=[N+]([O-])c1ccc(O)c(Nc2ccnc(Nc3cc([N+](=O)[O-])ccc3O)n2)c1 [Compound R950155] |  | IC50 (Homo sapiens): > 10 µM |
| O=[N+]([O-])c1ccc(NCCO)c(Nc2ccnc(Nc3cc([N+](=O)[O-])ccc3NCCO)n2)c1 [Compound R950156] | > 10 |  |
| Cc1ccc(N)cc1Nc1ncc(F)c(Nc2cc(N)ccc2C)n1 [Compound R950157] |  | IC50 (Homo sapiens, Jurkat): > 10 µM |
| Nc1ccc(F)c(Nc2ncc(F)c(Nc3cc(N)ccc3F)n2)c1 [Compound R950158] |  | IC50 (Homo sapiens, Jurkat): 21.4 µM |
| Nc1cc(Nc2ncc(F)c(Nc3ccc(F)c(N)c3)n2)ccc1F [Compound R950159] |  | IC50 (Homo sapiens, Jurkat): 8.45 µM |
| O=[N+]([O-])c1cccc(Nc2ncc(F)c(Nc3cccc([N+](=O)[O-])c3)n2)c1 [Compound R950160] |  | IC50 (Homo sapiens): > 10 µM |
| COC(=O)c1cc2cc(Nc3ncc(F)c(Nc4cccc(N)c4)n3)ccc2o1 [Compound R950162] |  | IC50 (Homo sapiens, Jurkat): 8.92 µM |
| Nc1cccc(Nc2nc(Nc3cccc(O)c3)ncc2F)c1 [Compound R950163] |  | IC50 (Homo sapiens, Jurkat): 24.1 µM |
| CC(C)Oc1cccc(Nc2ncc(F)c(Nc3cccc(N)c3)n2)c1 [Compound R950164] |  | IC50 (Homo sapiens, Jurkat): 18.2 µM |
| CC(C)Oc1ccc(Nc2ncc(F)c(Nc3cccc(N)c3)n2)cc1 [Compound R950165] |  | IC50 (Homo sapiens, Jurkat): 7.59 µM |
| CC(C)Nc1cccc(Nc2ncc(F)c(Nc3cccc(NC(C)C)c3)n2)c1 [Compound R950166] |  | IC50 (Homo sapiens, Jurkat): > 10 µM |
| O=C(NCCO)c1cc2cc(Nc3ncc(F)c(Nc4ccc5oc(C(=O)NCCO)cc5c4)n3)ccc2o1 [Compound R950167] | > 10 |  |
| NCCNC(=O)c1cc2cc(Nc3ncc(F)c(Nc4ccc5oc(C(=O)NCCN)cc5c4)n3)ccc2o1 [Compound R950168] | 10.7 |  |
| O=C(NCCNCc1ccccc1)c1cc2cc(Nc3ncc(F)c(Nc4ccc5oc(C(=O)NCCNCc6ccccc6)cc5c4)n3)ccc2o1 [Compound R950169] | > 10 |  |
| CNCCNC(=O)c1cc2cc(Nc3ncc(F)c(Nc4ccc5oc(C(=O)NCCNC)cc5c4)n3)ccc2o1 [Compound R950170] | > 10 |  |
| CC(CO)Nc1cccc(Nc2ncc(F)c(Nc3cccc(NC(C)CO)c3)n2)c1 (stereo not drawn) [Compound R950171] | 4.36 |  |
| O=C(c1cc2cc(Nc3ncc(F)c(Nc4ccc5oc(C(=O)N6CCOCC6)cc5c4)n3)ccc2o1)N1CCOCC1 [Compound R950172] | 23.1 |  |
| O=C(NCCN1CCOCC1)c1cc2cc(Nc3ncc(F)c(Nc4ccc5oc(C(=O)NCCN6CCOCC6)cc5c4)n3)ccc2o1 [Compound R950173] | 9.18 |  |
| Fc1cnc(Nc2cccc(NCCOCc3ccccc3)c2)nc1Nc1cccc(NCCOCc2ccccc2)c1 [Compound R950174] | > 10 |  |
| Nc1cccc(Nc2ncc(F)c(Nc3cccc(NCCOCc4ccccc4)c3)n2)c1 [Compound R950175] | > 10 |  |

| Compound | IC50 [µM] | other results |
| --- | --- | --- |
| Nc1cccc(Nc2nc(Nc3cccc(NCCOCc4ccccc4)c3)ncc2F)c1 [Compound R950176] | > 10 |  |
| OCCNc1cccc(Nc2ncc(F)c(Nc3cccc(NCCO)c3)n2)c1 [Compound R950181] | 2.69 |  |
| CN(C)c1cccc(Nc2ncc(F)c(Nc3cccc(N(C)C)c3)n2)c1 [Compound R950182] |  | IC50 (Homo sapiens, Jurkat): > 10 µM |
| CCOC(=O)COc1cccc(Nc2ncc(F)c(Nc3cc(Cl)c(O)c(Cl)c3)n2)c1 [Compound R950185] | > 10 |  |
| O=C(COc1cccc(Nc2ncc(F)c(Nc3cc(Cl)c(O)c(Cl)c3)n2)c1)N1CCOCC1 [Compound R950187] | 22.3 |  |
| O=C(COc1cccc(Nc2ncc(F)c(Nc3cc(Cl)c(O)c(Cl)c3)n2)c1)N1CCNCC1 [Compound R950188] | 17.9 |  |
| CNc1ncc(F)c(Nc2ccc3c(c2)OCCO3)n1 [Compound R950189] | 22 |  |
| CNC(=O)CNc1cccc(Nc2ncc(F)c(Nc3ccc4c(c3)OCCO4)n2)c1 [Compound R950191] | 2.59 |  |
| NC(=O)CNc1cccc(Nc2ncc(F)c(Nc3ccc4c(c3)OCCO4)n2)c1 [Compound R950192] | 1.73 |  |
| O=C(CNc1cccc(Nc2ncc(F)c(Nc3ccc4c(c3)OCCO4)n2)c1)N1CCOCC1 [Compound R950193] | 2.83 |  |
| CN1CCN(C(=O)CNc2cccc(Nc3ncc(F)c(Nc4ccc5c(c4)OCCO5)n3)c2)CC1 [Compound R950194] | 5.13 |  |
| O=C(CNc1cccc(Nc2ncc(F)c(Nc3ccc4c(c3)OCCO4)n2)c1)NCCO [Compound R950195] | 1.8 |  |
| CNCCNC(=O)CNc1cccc(Nc2ncc(F)c(Nc3ccc4c(c3)OCCO4)n2)c1 [Compound R950196] | 2.08 |  |
| O=C(CNc1cccc(Nc2ncc(F)c(Nc3ccc4c(c3)OCCO4)n2)c1)N1CCNCC1 [Compound R950197] | 2.58 |  |
| O=C(CNc1cccc(Nc2ncc(F)c(Nc3ccc4c(c3)OCCO4)n2)c1)NCCNCc1ccccc1 [Compound R950198] | 1.99 |  |
| O=C(CNc1cccc(Nc2ncc(F)c(Nc3ccc4c(c3)OCCO4)n2)c1)N(CCO)CCO [Compound R950199] | 3.21 |  |
| O=C(CNc1cccc(Nc2ncc(F)c(Nc3ccc4c(c3)OCCO4)n2)c1)NCCN1CCOCC1 [Compound R950200] | 2.26 |  |
| CSc1nc2ccc(Nc3ncc(F)c(Nc4ccc5c(c4)OCCO5)n3)cc2s1 [Compound R950201] | 4.5 |  |
| CSc1nc2ccc(Nc3ncc(F)c(Nc4ccc5nc(SC)sc5c4)n3)cc2s1 [Compound R950202] | > 10 |  |
| COc1ccc(OCCNc2ncc(F)c(Nc3ccc4c(c3)OCCO4)n2)cc1 [Compound R950204] |  | IC50 (Homo sapiens, Jurkat): > 10 µM |
| Fc1cnc(NCc2ccc3c(c2)CCO3)nc1Nc1ccc2c(c1)OCCO2 [Compound R950205] |  | IC50 (Homo sapiens, Jurkat): 24.5 µM |
| Fc1cnc(NCC2COc3ccccc3O2)nc1Nc1ccc2c(c1)OCCO2 (stereo not drawn) [Compound R950206] |  | IC50 (Homo sapiens, Jurkat): > 10 µM |
| OCCNc1cccc(Nc2ncc(F)c(Nc3ccc4c(c3)OCCO4)n2)c1 [Compound R950208] | 1.77 |  |
| OCCN(CCO)c1cccc(Nc2ncc(F)c(Nc3ccc4c(c3)OCCO4)n2)c1 [Compound R950209] |  | IC50 (Homo sapiens, Jurkat): 3.8 µM |
| CSc1nc2ccc(Nc3ncc(F)c(Nc4cccc(O)c4)n3)cc2s1 [Compound R950212] | 9.5 |  |

| Compound | IC50 [µM] | other results |
| --- | --- | --- |
| Oc1cccc(Nc2nc(NCc3ccc4c(c3)CCO4)ncc2F)c1 [Compound R950213] |  | IC50 (Homo sapiens, Jurkat): > 10 µM |
| Oc1cccc(Nc2nc(NCC3COc4ccccc4O3)ncc2F)c1 (stereo not drawn) [Compound R950214] |  | IC50 (Homo sapiens, Jurkat): > 10 µM |
| CCOC(=O)CNc1cccc(Nc2ncc(F)c(Nc3cccc(O)c3)n2)c1 [Compound R950215] | 5.01 |  |
| CCOC(=O)CNc1cccc(Nc2ncc(F)c(Nc3cccc(O)c3)n2)c1 [Compound R950216] | 3.86 |  |
| CNC(=O)CNc1cccc(Nc2ncc(F)c(Nc3cccc(O)c3)n2)c1 [Compound R950218] | 3.43 |  |
| O=C(CNc1cccc(Nc2ncc(F)c(Nc3cccc(O)c3)n2)c1)N1CCOCC1 [Compound R950221] | 20.3 |  |
| O=C(CNc1cccc(Nc2ncc(F)c(Nc3cccc(O)c3)n2)c1)N1CCNCC1 [Compound R950222] | 2.01 |  |
| CN1CCN(C(=O)CNc2cccc(Nc3ncc(F)c(Nc4cccc(O)c4)n3)c2)CC1 [Compound R950223] | 2.77 |  |
| O=C(CNc1cccc(Nc2ncc(F)c(Nc3cccc(O)c3)n2)c1)NCCN1CCOCC1 [Compound R950226] | 2.92 |  |
| Nc1cccc(Nc2ncc(F)c(Nc3cccc(O)c3)n2)c1 [Compound R950227] |  | IC50 (Homo sapiens, Jurkat): 7.11 µM |
| CCOC(=O)CNc1cccc(Nc2ncc(F)c(Nc3cccc(NCCO)c3)n2)c1 [Compound R950229] | 3.77 |  |
| O=C(CNc1cccc(Nc2ncc(F)c(Nc3cccc(NCCO)c3)n2)c1)NCCO [Compound R950231] | 8.69 |  |
| CNCCNC(=O)CNc1cccc(Nc2ncc(F)c(Nc3cccc(NCCO)c3)n2)c1 [Compound R950234] | > 10 |  |
| O=C(CNc1cccc(Nc2ncc(F)c(Nc3cccc(NCCO)c3)n2)c1)NCCNCc1ccccc1 [Compound R950235] | 6.26 |  |
| O=C(CNc1cccc(Nc2ncc(F)c(Nc3cccc(NCCO)c3)n2)c1)N1CCOCC1 [Compound R950236] | 9.69 |  |
| CN(C)CCCNC(=O)CNc1cccc(Nc2ncc(F)c(Nc3cccc(NCCO)c3)n2)c1 [Compound R950237] | 12.9 |  |
| O=C(CNc1cccc(Nc2ncc(F)c(Nc3cccc(NCCO)c3)n2)c1)NCCN1CCOCC1 [Compound R950239] | > 10 |  |
| CN1CCN(C(=O)CNc2cccc(Nc3ncc(F)c(Nc4cccc(NCCO)c4)n3)c2)CC1 [Compound R950240] | 8.93 |  |
| O=C(CNc1cccc(Nc2ncc(F)c(Nc3cccc(NCCO)c3)n2)c1)N1CCNCC1 [Compound R950241] | 5.19 |  |
| CC(=O)Nc1cccc(N(C(C)=O)c2ncc(F)c(N(C(C)=O)c3cccc(NC(C)=O)c3)n2)c1 [Compound R950244] | > 10 |  |
| CC(=O)Nc1cccc(N(C(C)=O)c2ncc(F)c(N(C(C)=O)c3cccc(N(C(C)=O)C(C)=O)c3)n2)c1 [Compound R950245] | > 10 |  |
| CC(=O)Nc1cccc(N(C(C)=O)c2nc(N(C(C)=O)c3cccc(N(C(C)=O)C(C)=O)c3)ncc2F)c1 [Compound R950246] | > 10 |  |
| CC(=O)N(C(C)=O)c1cccc(N(C(C)=O)c2ncc(F)c(N(C(C)=O)c3cccc(N(C(C)=O)C(C)=O)c3)n2)c1 [Compound R950247] | > 10 |  |
| O=[N+]([O-])c1cccc(Nc2nc(Nc3ccc4c(c3)NCCO4)ncc2F)c1 [Compound R950253] | 10.5 |  |
| CNC(=O)COc1cccc(Nc2ncc(F)c(Nc3cccc([N+](=O)[O-])c3)n2)c1 [Compound R950261] | 17.4 |  |
